The text below walks through data of patent US12162878B2 (HINOVA PHARMACEUTICALS INC., priority 2018, dated 2024).

A word on the IC50: it is the point on the concentration scale where inhibition reaches its midpoint.

Holding throughout (type): cell-based, human
In one test the test system is CWR22RV1 cells. The test can be described thus: Inhibition of proliferation of CWR22RV1 cells (CCK-8). The note with it: Homo sapiens, CWR22Rv1, 144 h, 6 days. The gist of the method:
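Cells seeded at 1500/well, cultured overnight, then exposed to compounds in 3-fold dilutions (9 concentrations from 10 μM top final, 0.1% DMSO) for 6 days at 37 °C. Viability read by CCK-8 absorbance at 450 nm after 2.5 h; IC50 from dose-response inhibition fit.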

The test system of a further test is MCF-7 cells. As to the kind of experiment: Inhibition of proliferation of MCF-7 cells (CCK-8). The procedure:
• MCF-7 cell line (Cell Bank of Chinese Academy of Sciences, TCHu74) • FBS (Gibco, Cat. No. 10099-141) • 0.01M PBS (Biosharp, Cat. No. 162262) • RIPM1640 (Hyclone, Cat. No. 308090.01) • Penicillin-Streptomycin (Hyclone, Cat. No. SV30010) • Cell counting kit-8 (Signalway Antibody, Cat. No. CP002) • DMSO (Sigma, Cat. No. D5879) • Centrifuge Tube, 15 ml (Excell Bio, Cat. No. CS015-0001) • Cell Culture Dish, (Excell Bio, Cat. No. CS016-0128) • 96-well cell culture cluster (Corning, Cat. No. 3599) 3. Experimental Method
1) MCF-7 cells were subcultured in cell culture media, and the cells in good growth condition were seeded in a 96-well plate, 80 μL for each well, thus the number of cells per well was 1000, then the plate was cultured overnight in a 37° C., 5% CO2 cell incubator.
(§1) 2) The drug was prepared with dimethyl sulfoxide (DMSO) as a 10 mM stock solution. Prior to use, the solution was diluted 3 times with DMSO, and then diluted with a 3-fold gradient to obtain 9 concentration gradients. Then, each concentration of the compound was further diluted 200 times with the culture media (to ensure that DMSO concentration in the culture system was 0.1%), 2 repeat wells for each concentration. The diluted solution of each compound (20 μL) was added to the cell culture well (with a final concentration of 10 μM, 3.3 μM, 1.1 μM . . . ), and shaken gently for mixing.
In addition, three negative control wells containing only cells and three blank control wells containing only culture medium (20 μL DMSO diluted 200 times with culture medium being added to six wells) were included.
(§2) (1) After culturing for 6 days, 10 μL CCK-8 was added to each well and cultured for additional 2.5 h in a 37° C., 5% CO2 cell incubator.
(§3) (2) The absorbance (OD value) at 450 nm was measured with a multifunctional microplate reader.
(§4) (3) The data was analyzed by the Dose-response-inhibition equation in the software GraphPad Prism6, and the IC50 value was obtained.

For another test, the system named is MDA-MB-231 cells. As to the kind of experiment: Inhibition of proliferation of MDA-MB-231 cells (CCK-8). The procedure:
• MDA-MB-231 cell line (Cell Bank of Chinese Academy of Sciences, TCHu104) • FBS (Gibco, Cat. No. 10099-141) • 0.01M PBS (Biosharp, Cat. No. 162262) • RIPM1640 (Hyclone, Cat. No. 308090.01) • Penicillin-Streptomycin (Hyclone, Cat. No. SV30010) • Cell counting kit-8 (Signalway Antibody, Cat. No. CP002) • DMSO (Sigma, Cat. No. D5879) • Centrifuge Tube, 15 ml (Excell Bio, Cat. No. CS015-0001) • Cell Culture Dish, (Excell Bio, Cat. No. CS016-0128) • 96-well cell culture cluster (Corning, Cat. No. 3599) 3. Experimental Method
1) MDA-MB-231 cells were subcultured in cell culture media, and the cells in good growth condition were seeded in a 96-well plate, 80 μL for each well, thus the number of cells per well was 1500, then the plate was cultured overnight in a 37° C., 5% CO2 cell incubator.
as §1, with “mixing. In addition, three negative control wells containing only cells and three blank control wells containing only culture medium (20 μL DMSO diluted 200 times with culture medium being added to six wells) were included.” for “mixing.”
as §2, §3, §4

The subject of the next test is MDA-MB-453 cells. The test can be described thus: Inhibition of proliferation of MDA-MB-453 cells (CCK-8). The note with it: Homo sapiens, 144 h, 6 days, CCK-8. The procedure:
• MDA-MB-453 cell line (Cell Bank of Chinese Academy of Sciences, TCHu35) • FBS (Gibco, Cat. No. 10099-141) • 0.01M PBS (Biosharp, Cat. No. 162262) • RIPM1640 (Hyclone, Cat. No. 308090.01) • Penicillin-Streptomycin (Hyclone, Cat. No. SV30010) • Cell counting kit-8 (Signalway Antibody, Cat. No. CP002) • DMSO (Sigma, Cat. No. D5879) • Centrifuge Tube, 15 ml (Excell Bio, Cat. No. CS015-0001) • Cell Culture Dish, (Excell Bio, Cat. No. CS016-0128) • 96-well cell culture cluster (Corning, Cat. No. 3599) 3. Experimental Method
1) MDA-MB-453 cells were subcultured in cell culture media, and the cells in good growth condition were seeded in a 96-well plate, 80 μL for each well, thus the number of cells per well was 1500, then the plate was cultured overnight in a 37° C., 5% CO2 cell incubator.
as §1, with “mixing. In addition, three negative control wells containing only cells and three blank control wells containing only culture medium (20 μL DMSO diluted 200 times with culture medium being added to six wells) were included.” for “mixing.”
as §2, §3, §4

For the molecule `Cn1cc(-c2cc(S(C)(=O)=O)ccc2N2CCC3(CC2)CC3(F)F)c2cc[nH]c2c1=O` [Compound 178, 4-(2-(1,1-difluoro-6-aza-spiro[2.5]octan-6-yl)-5-(methylsulfonyl)phenyl)-6-methyl-1H-pyrrolo[2,3-c]pyridin-7(6H)-one], the IC50 was 5 nM in the test on CWR22RV1 cells; 29 nM in the test with MCF-7 cells (Homo sapiens, MCF7, 144 h, 6 days, CCK-8); 39 nM in the test with MDA-MB-231 cells (Homo sapiens, 144 h, 6 days, CCK-8); 720 nM in the test with MDA-MB-453 cells. Moreover, the “inhibitory action on MCF-7 cells (in words)” value in the test with MCF-7 cells is recorded as “effective inhibitory action”. For the same molecule, the “inhibitory action on MDA-MB-231 cells (in words)” value in the test on MDA-MB-231 cells was “effective inhibitory action”.
